According to article PMC7145303, “In Vitro Activities of MMV Malaria Box Compounds against the Apicomplexan Parasite Neospora caninum, the Causative Agent of Neosporosis in Animals” (Molecules, 2020):
Where two headings read alike, the source gives them in different places.

Key:
[1] = test system: human foreskin fibroblasts (HFFs); experiment: HFF viability, Alamar Blue assay; format: cell-based; details: 1 µM compound/well, uninfected confluent HFF, 3 days
Protocol: For an initial screen, 390 compounds (1 µM compound/well) were added to human foreskin fibroblasts (HFFs) previously seeded in 96-well-plates. DMSO (0.25%) was included as a solvent control. HFF monolayers were either left uninfected or were infected with 10^3 N. caninum beta-galactosidase expressing tachyzoites per well. After 3 days, N. caninum proliferation was assayed by measuring beta-galactosidase activity, and HFF viability was monitored using the Alamar Blue assay. This screen was repeated once for confirmation, yielding identical results. […]
To define the cutoff values in the initial screening, compounds were regarded as effective against N. caninum when the beta-galactosidase values were lower than the mean values of the controls (8 replicates) minus three times the standard deviation of these control values. […] The IC50 values were calculated after the logit-log transformation of the relative growth (RG; control = 1) according to the formula ln (RG/(1 − RG)) = a × ln(drug concentration) + b, and the subsequent regression analysis was carried out using the corresponding software tool contained in the Excel software package (Microsoft, Seattle, WA, USA).

[2] = test system: Cryptosporidium parvum; set-up: method as in PMID 24566188; details: cited from earlier work
[3] = source of values not stated; cited from earlier work
[4] = test system: Plasmodium falciparum blood forms; set-up: method as in PMID 31665424; details: cited from earlier work
[5] = test system: N. caninum tachyzoites; experiment: N. caninum β-galactosidase reporter strain proliferation in HFF (screen and inhibition curves); format: cell-based; details: Neospora caninum
Protocol: Figure 2 Dose response curves of 9 Medicines for Malaria Venture (MMV) Malaria Box compounds. […] The inhibition of N. caninum tachyzoite proliferation was determined using a β-galactosidase reporter strain in the presence of a concentration series of compounds added prior to the infection of confluent human foreskin fibroblasts by tachyzoites. The mean values ± SE are indicated for quadruplicates.
For an initial screen, 390 compounds (1 µM compound/well) were added to human foreskin fibroblasts (HFFs) previously seeded in 96-well-plates. DMSO (0.25%) was included as a solvent control. HFF monolayers were either left uninfected or were infected with 10^3 N. caninum beta-galactosidase expressing tachyzoites per well. After 3 days, N. caninum proliferation was assayed by measuring beta-galactosidase activity, and HFF viability was monitored using the Alamar Blue assay. This screen was repeated once for confirmation, yielding identical results. Forty compounds showing values lower than the cut-off of the beta-galactosidase assay were regarded as effective against N. caninum, compounds yielding values lower than the cutoff of the Alamar Blue assay were regarded as cytotoxic. Effective compounds without cytotoxicity were regarded as potential hits and were retained for further experiments. The IC50 values (inhibitory concentration of 50% of the solvent control value) of selected compounds were determined in quadruplicate wells in the same assay set-up and were calculated as described.
To define the cutoff values in the initial screening, compounds were regarded as effective against N. caninum when the beta-galactosidase values were lower than the mean values of the controls (8 replicates) minus three times the standard deviation of these control values. Furthermore, compounds were regarded as cytotoxic when the Alamar Blue values were lower than the mean values of the untreated controls (8 replicates) minus three times the standard deviation of these control values. The IC50 values were calculated after the logit-log transformation of the relative growth (RG; control = 1) according to the formula ln (RG/(1 − RG)) = a × ln(drug concentration) + b, and the subsequent regression analysis was carried out using the corresponding software tool contained in the Excel software package (Microsoft, Seattle, WA, USA).

[6] = test system: Theileria annulata; details: cited from earlier work; for Therapeutic index: T. annulata vs macrophages
[7] = test system: N. caninum tachyzoites; format: cell-based, Neospora caninum; details: 500 nM, TEM at 6, 12, 24, 48 h of treatment
Protocol: The transmission electron microscopy of N. caninum-infected HFF monolayers was done as previously described. Briefly, HFFs were grown to confluency in 6-well tissue culture devices and were infected with freshly isolated N. caninum tachyzoites during 2 h at 37 °C/5% CO2. After one wash in PBS, treatments with the compounds (1), (2), and (5) were initiated, all at 500 nM. The controls were treated with the corresponding amount of DMSO. After 6, 12, 24, or 48 h, samples were rinsed in PBS, and were fixed in 100 mM of cacodylate buffer pH7.3 containing 2.5% glutaraldehyde for 2 h at room temperature. The cells were scraped and centrifuged at 1000 g for 10 min at 4 °C and, and the resulting pellet was further fixed in the same solution at 4 °C overnight, followed by post-fixation in 2% OsO4 in cacodylate buffer for 4 h at 4 °C. Subsequently, the specimens were washed and pre-stained in Uranyless^TM (Electron Microscopy Sciences, Hatfield, PA, USA), followed by dehydration in a graded series of ethanol (30%, 50%, 70%, 90%, and 100%). They were finally embedded in Epon 820 epoxy resin over a period of 2 days with 3 resin changes. The resin was polymerized at 65 °C for 24 h, and 80-nm sections were cut on a Reichert and Jung ultramicrotome. The sections were loaded onto 300-mesh copper grids (Plano GmbH, Marburg, Germany) and were stained with Uranyless^TM and lead citrate as described.

[8] = set-up: AUC0-inf / AUC0-last: unit not given here; details: mice, p.o., data provided by MMV, cited from earlier work; for AUC0-last / MRT0-last / Tlast / Tmax / Cmax: 114 µmol/kg (1),(5), 119 µmol/kg (2); for Cmax: plasma
[9] = test system: cysteine proteinases; set-up: method as in PMID 27467575; details: functional assays; cited from earlier work
[10] = test system: Brugia malayi; set-up: method as in PMID 27467575; details: cited from earlier work
[11] = 72 h, 3 days, concentration range 0–250 nM, with 95% confidence intervals

Row | SMILES | LogP [3] | Rapidity of action against P. falciparum blood forms [4] | IC50 [5, 11] | Therapeutic index [6] | Effectiveness against T. annulata [6] | Effects on the ultrastructure of N. caninum tachyzoites [7] | AUC0-last [8] | MRT0-last [8] | Tlast [8] | Tmax [8] | Cmax [8] | Effectiveness against C. parvum [2] | also measured
1 | CN(C)c1ccc(C(O)(c2ccc(N(C)C)cc2)c2ccc(N(C)C)cc2)cc1 [Compound (1)] | 4.76 | more slowly than artesunate, but faster than atovaquone | 25 ± 5 nM | 2.5 | most effective against T. annulata | cytoplasmic vacuoles that were already detectable after 6 h of treatment | 27.2 | 4.80 h | 9.00 h | 5.00 h | 1090 nM |  | Cytotoxicity against HFFs [1]: did not affect confluent HFFs; IC50 ([2]; read-out: IC50 against Cryptosporidium parvum): ~800 nM; Effects on the ultrastructure of N. caninum tachyzoites ([7]; listed as MMV665941): specifically induced distinct alterations in the tachyzoites
2 | O=C(Nc1cccc(C(F)(F)F)c1)c1cc(Cl)ccc1O [Compound (2)] | 6.06 | very rapidly | 71 ± 30 nM |  |  | after a treatment duration of 12 h (Figure 6C), the loss of the tachyzoite mitochondrial matrix was evident |  | 5.24 h | 9.00 h | 6.33 h | 62 nM |  | Effects on the ultrastructure of N. caninum tachyzoites ([7]; listed as MMV665807): specifically induced distinct alterations in the tachyzoites
3 | CCCOCc1cc(CN2CCN(c3cccc(Cl)c3)CC2)c(O)c2ncccc12 [Compound (3)] | 4.71 | very slowly | 99 ± 10 nM |  |  |  |  |  |  |  |  |  | Inhibition of cysteine proteinases [9]: inhibits cysteine proteinases
4 | COc1ccc(C(=O)NC(c2ccc(Cl)cc2Cl)c2cc(Cl)c3cccnc3c2O)cc1 (stereo not drawn) [Compound (4)] | 6.15 | relatively slowly | 79 ± 10 nM | around 18 | most effective against T. annulata |  |  |  |  |  |  | effective against C. parvum | Effectiveness against the helminth Brugia malayi [10]: effective
5 | O=C1c2ccc3c4c(ccc(c24)C(=O)N1CCCCO)C(=O)N(CCCCO)C3=O [Compound (5)] | −1.30 |  | 150 ± 30 nM |  |  | ongoing proliferation despite clear ultrastructural alterations | 0.475 | 1.55 h | 7.00 h | 0.444 h | 308 nM | effective against C. parvum with an IC50 in same range | IC50 [5]: < 200 nM; Effects on the ultrastructure of N. caninum tachyzoites ([7]; listed as MMV009085): specifically induced distinct alterations in the tachyzoites; AUC0-inf ([8]; 114 µmol/kg): 0.486; MRT0-inf ([8]; 114 µmol/kg): 1.80 h; T1/2 ([8]; 114 µmol/kg): 1.48 h
